For experiment [1], the target named is T1, ROCK2 (Homo sapiens, UniProt O75116).
T1 construct: N-terminal 6His-tagged ROCK2 catalytic domain 11-552; 6His (N); purchased Dundee University, UK; host or cells: baculovirus expression system
In words: ROCK2 inhibition assay (ADP-Glo kinase assay, called ROCK2 binding activity). The format is biochemical. To be noted: 20 μM ATP, 1 hour pre-incubation, read-out: ROCK 2 (IC50 category). As to the method: ROCK2 Binding Activity: Assay for ROCK2 inhibition was performed using the protein construct N-terminal 6His-tagged ROCK2 catalytic domain 11-552 (Dundee University, UK). Protein was purified from a baculovirus expression system. Long S6 peptide ([…]) was used as substrate. Kinase reactions were carried out in 15 μl volume in a 96-well plate (black, half area) using 1.25 nM constitutively active ROCK2 kinase, 100 μM long S6 peptide, 20 μM ATP and test compound in DMSO (or DMSO only for controls). The final concentration of DMSO was 1%. Assay buffer was 50 mM HEPES pH 7.5 supplemented with 0.2 mM EDTA, 10 mM magnesium acetate, 0.01% Tween-20, 1 mM DTT and 0.01% BSA. Test compounds were pre-incubated with ROCK2 kinase for 1 hour before addition of ATP and long S6 peptide. After incubation for a further 1 hour, the amount of ADP produced was measured using ADP-Glo Kinase Assay (Promega) as per manufacturer's instructions. The luminescence was measured on a PHERAstar FS (BMG Labtech). The concentration of test compound required to inhibit ADP production by 50% (the IC50) was calculated using a four-parameter logistic function with software by Dotmatics. […] The category “+” refers to compounds with a ROCK2 or ROCK1 IC50 value of >10 μM. The category “++” refers to compounds with a ROCK2 or ROCK1 IC50 value of 10 to 3 μM. The category “+++” refers to compounds with a ROCK1 or ROCK2 IC50 value of 3 to 0.3 μM. The category “++++” refers to compounds with a ROCK1 or ROCK2 IC50 value of <0.3 μM.
On the technique in general: In ADP-Glo the light output rises with the ADP produced.

Experiment [2] concerns the target ROCK1 (Homo sapiens, UniProt Q13464). Kind of experiment: ROCK1 inhibition assay (ROCK1 binding activity, as determined by the assay described for ROCK2). To be noted: read-out: ROCK 1 (IC50 category). The experiment is classed as biochemical. Here is the method: Assay for ROCK2 inhibition was performed using the protein construct N-terminal 6His-tagged ROCK2 catalytic domain 11-552 (Dundee University, UK). Protein was purified from a baculovirus expression system. Long S6 peptide ([…]) was used as substrate. Kinase reactions were carried out in 15 μl volume in a 96-well plate (black, half area) using 1.25 nM constitutively active ROCK2 kinase, 100 μM long S6 peptide, 20 μM ATP and test compound in DMSO (or DMSO only for controls). The final concentration of DMSO was 1%. Assay buffer was 50 mM HEPES pH 7.5 supplemented with 0.2 mM EDTA, 10 mM magnesium acetate, 0.01% Tween-20, 1 mM DTT and 0.01% BSA. Test compounds were pre-incubated with ROCK2 kinase for 1 hour before addition of ATP and long S6 peptide. After incubation for a further 1 hour, the amount of ADP produced was measured using ADP-Glo Kinase Assay (Promega) as per manufacturer's instructions. The luminescence was measured on a PHERAstar FS (BMG Labtech). The concentration of test compound required to inhibit ADP production by 50% (the IC50) was calculated using a four-parameter logistic function with software by Dotmatics. […] The category “+” refers to compounds with a ROCK2 or ROCK1 IC50 value of >10 μM. The category “++” refers to compounds with a ROCK2 or ROCK1 IC50 value of 10 to 3 μM. The category “+++” refers to compounds with a ROCK1 or ROCK2 IC50 value of 3 to 0.3 μM. The category “++++” refers to compounds with a ROCK1 or ROCK2 IC50 value of <0.3 μM.

The structures appear in SMILES notation.

Chain of ROCK1 (Q13464 whole entry, the tested form may be a part): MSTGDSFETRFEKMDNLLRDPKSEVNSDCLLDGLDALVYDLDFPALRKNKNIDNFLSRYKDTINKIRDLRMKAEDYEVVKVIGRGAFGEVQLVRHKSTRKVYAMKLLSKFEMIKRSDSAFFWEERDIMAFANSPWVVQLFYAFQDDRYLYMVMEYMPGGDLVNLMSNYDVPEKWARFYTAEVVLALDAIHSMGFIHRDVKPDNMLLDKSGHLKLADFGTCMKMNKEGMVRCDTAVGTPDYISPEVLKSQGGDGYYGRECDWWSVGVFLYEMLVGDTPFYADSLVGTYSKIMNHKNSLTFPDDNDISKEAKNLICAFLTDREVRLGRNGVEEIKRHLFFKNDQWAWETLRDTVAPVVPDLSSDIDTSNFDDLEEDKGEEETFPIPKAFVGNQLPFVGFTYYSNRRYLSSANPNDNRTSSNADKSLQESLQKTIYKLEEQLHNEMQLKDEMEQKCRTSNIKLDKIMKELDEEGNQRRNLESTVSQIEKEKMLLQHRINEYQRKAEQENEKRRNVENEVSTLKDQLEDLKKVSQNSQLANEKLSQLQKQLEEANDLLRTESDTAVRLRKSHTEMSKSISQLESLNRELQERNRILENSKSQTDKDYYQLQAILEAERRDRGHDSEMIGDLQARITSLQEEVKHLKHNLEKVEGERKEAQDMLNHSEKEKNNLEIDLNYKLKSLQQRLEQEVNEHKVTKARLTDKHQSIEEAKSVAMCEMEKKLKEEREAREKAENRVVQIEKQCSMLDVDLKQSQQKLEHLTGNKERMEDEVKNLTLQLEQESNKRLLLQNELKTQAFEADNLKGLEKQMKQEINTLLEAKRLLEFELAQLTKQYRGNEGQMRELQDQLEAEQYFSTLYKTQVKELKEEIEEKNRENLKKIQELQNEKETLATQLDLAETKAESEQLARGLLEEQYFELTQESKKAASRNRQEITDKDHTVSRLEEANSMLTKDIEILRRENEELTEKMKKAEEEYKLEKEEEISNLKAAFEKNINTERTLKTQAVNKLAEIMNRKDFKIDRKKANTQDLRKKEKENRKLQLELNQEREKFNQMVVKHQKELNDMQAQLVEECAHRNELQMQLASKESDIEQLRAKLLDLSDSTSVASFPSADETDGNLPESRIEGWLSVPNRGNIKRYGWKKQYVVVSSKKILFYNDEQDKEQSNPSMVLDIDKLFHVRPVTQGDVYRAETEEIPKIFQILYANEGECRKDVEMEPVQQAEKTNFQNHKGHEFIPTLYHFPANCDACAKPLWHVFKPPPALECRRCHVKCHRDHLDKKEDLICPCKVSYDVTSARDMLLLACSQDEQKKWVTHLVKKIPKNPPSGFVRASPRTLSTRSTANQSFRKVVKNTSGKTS
T1 sequence (O75116 11-552): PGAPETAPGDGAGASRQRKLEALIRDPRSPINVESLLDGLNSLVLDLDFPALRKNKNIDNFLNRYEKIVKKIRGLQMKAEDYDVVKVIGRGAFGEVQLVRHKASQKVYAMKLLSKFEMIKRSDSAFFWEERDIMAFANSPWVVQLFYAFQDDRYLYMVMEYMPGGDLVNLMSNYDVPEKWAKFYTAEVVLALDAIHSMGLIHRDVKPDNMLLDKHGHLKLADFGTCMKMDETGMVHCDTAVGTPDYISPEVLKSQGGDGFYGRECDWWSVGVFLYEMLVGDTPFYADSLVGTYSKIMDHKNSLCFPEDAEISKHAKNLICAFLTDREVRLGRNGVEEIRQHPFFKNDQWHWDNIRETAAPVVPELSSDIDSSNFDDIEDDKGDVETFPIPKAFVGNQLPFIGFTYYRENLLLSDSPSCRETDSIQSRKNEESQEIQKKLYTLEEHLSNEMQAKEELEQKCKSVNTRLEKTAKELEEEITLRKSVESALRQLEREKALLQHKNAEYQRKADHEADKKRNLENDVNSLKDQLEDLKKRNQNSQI

The term IC50 denotes the concentration needed to halve the response being measured. Turning to `CCn1nc(-c2ccc(-c3ccc(C)nc3)cc2)nc1Nc1cc2c(cc1C)C(=O)NC2C` (single isomer, unassigned) [Example 78], the half-maximal inhibitory concentration (IC50) is less than 0.3 µM in experiment [1] and 3 to 10 µM in experiment [2].
The corresponding values for `CCn1nc(-c2ccc(-c3ccc(C)nc3)cc2)nc1Nc1cc2c(cc1C)C(=O)NC2C` (single isomer, unassigned) [Example 84] are less than 0.3 µM and 3 to 10 µM.
The corresponding values for `Cc1cn(-c2ccc(-c3nc(Nc4ccc5c(c4)CNC5=O)n(C)n3)cc2)cn1` [Example 1] are less than 0.3 µM and greater than 10 µM.
As to `CCc1cn(-c2ccc(-c3nc(Nc4ccc5c(c4)CNC5=O)n(C)n3)cc2)c(C)n1` [Example 2], the results for the IC50 in experiment [1] and in experiment [2] were less than 0.3 µM and greater than 10 µM, respectively.
The matching figures for `Cc1nc(C2CC2)cn1-c1ccc(-c2nc(Nc3ccc4c(c3)CNC4=O)n(C)n2)cc1` [Example 3]: less than 0.3 µM and greater than 10 µM.
As to `CCn1nc(-c2ccc(-n3cc(C4CC4)nc3C)cc2)nc1Nc1ccc2c(c1)CNC2=O` [Example 4], the IC50 is less than 0.3 µM in experiment [1] and 3 to 10 µM in experiment [2].
Regarding `Cn1nc(-c2ccc(-c3ccnc(C(F)(F)F)c3)cc2)nc1Nc1ccc2c(c1)CNC2=O` [Example 5], the values for the IC50 in experiment [1] and in experiment [2] were less than 0.3 µM and 3 to 10 µM, respectively.
The corresponding values for `Cn1nc(-c2ccc(C(=O)NCC(F)(F)F)cc2)nc1Nc1ccc2c(c1)CNC2=O` [Example 6] are less than 0.3 µM and greater than 10 µM.
Turning to `Cn1nc(-c2ccc(C(=O)NCC(F)F)cc2)nc1Nc1ccc2c(c1)CNC2=O` [Example 7], the IC50 in experiment [1] is 3 to 10 µM; in experiment [2] it was greater than 10 µM.
The matching figures for `CCn1nc(-c2ccc(-n3cc(C4CC4)nc3C)cc2)nc1Nc1ccc2c(c1C)CNC2=O` [Example 8]: less than 0.3 µM and greater than 10 µM.
The corresponding values for `Cn1nc(-c2cccc(C(=O)NCC(F)(F)F)c2)nc1Nc1ccc2c(c1)CNC2=O` [Example 9] are 3 to 10 µM and greater than 10 µM.
The corresponding values for `Cn1nc(-c2ccc(-c3ccc(C(F)(F)F)nc3)cc2)nc1Nc1ccc2c(c1)CNC2=O` [Example 10] are less than 0.3 µM and greater than 10 µM.
Take `CCn1nc(-c2ccc(-c3cnc(C4CC4)n3C)cc2)nc1Nc1ccc2c(c1C)CNC2=O` [Example 11]: the IC50 in experiment [1] is 3 to 10 µM; in experiment [2], greater than 10 µM.
As for `Cc1cc(-c2nc(Nc3ccc4c(c3C)CNC4=O)n(C)n2)ccc1-c1cnc(C2CC2)n1C` [Example 12], the IC50 in experiment [1] was 3 to 10 µM; in experiment [2], greater than 10 µM.
The corresponding values for `Cc1cc(-c2nc(Nc3ccc4c(c3C)CNC4=O)n(C)n2)ccc1-n1cnc(C2CC2)c1` [Example 13] are less than 0.3 µM and greater than 10 µM.
Turning to `Cn1nc(-c2ccc(-n3cnc(C4CC4)c3)cc2)nc1Nc1ccc2c(c1)CNC2=O` [Example 14], the IC50 is less than 0.3 µM in experiment [1] and greater than 10 µM in experiment [2].
With `CCn1nc(-c2ccc(-c3ccc(C)nc3)cc2)nc1Nc1ccc2c(c1)CNC2=O` [Example 15], the IC50 was less than 0.3 µM in experiment [1] and 3 to 10 µM in experiment [2].
The matching figures for `Cn1nc(-c2ccc(-n3cnc(C4CC4)c3)cc2)nc1Nc1ccc2c(c1)C(C)(C)NC2=O` [Example 16]: less than 0.3 µM and greater than 10 µM.
The corresponding values for `Cc1nc(C2CC2)cn1-c1ccc(-c2nc(Nc3ccc4c(c3)C(C)(C)NC4=O)n(C)n2)cc1` [Example 17] are 3 to 10 µM and greater than 10 µM.
For `CCn1nc(-c2ccc(-n3cc(C4CC4)nc3C)cc2)nc1Nc1ccc2c(c1)C(C)(C)NC2=O` [Example 18], the values for the IC50 in experiment [1] and in experiment [2] were 3 to 10 µM and greater than 10 µM, respectively.
The matching figures for `CCn1nc(-c2ccc(-n3cnc(C4CC4)c3)cc2)nc1Nc1ccc2c(c1)C(C)(C)NC2=O` [Example 19]: less than 0.3 µM and greater than 10 µM.
The matching figures for `CCn1nc(-c2ccc(-c3ccc(C4CC4)nc3)cc2)nc1Nc1ccc2c(c1)CNC2=O` [Example 20]: less than 0.3 µM and 3 to 10 µM.
The corresponding values for `CCn1nc(-c2ccc(-n3cnc(C4CC4)c3)cc2)nc1Nc1ccc2c(c1)C(C)NC2=O` (stereo not drawn) [Example 21] are less than 0.3 µM and 3 to 10 µM.
In the case of `CCn1nc(-c2ccc(-n3cc(C4CC4)nc3C)cc2)nc1Nc1ccc2c(c1)C(C)NC2=O` (stereo not drawn) [Example 22], the figures for the IC50 in experiment [1] and in experiment [2] were less than 0.3 µM and 3 to 10 µM, respectively.
The corresponding values for `CCn1nc(-c2ccc(-n3cnc(C4CC4)c3)cc2)nc1Nc1ccc2c(c1)C1(CC1)NC2=O` [Example 23] are less than 0.3 µM and greater than 10 µM.
The matching figures for `CCn1nc(-c2ccc(-n3cnc(C4CC4)c3)cc2)nc1Nc1ccc2c(c1)CNC2=O` [Example 24]: less than 0.3 µM and 3 to 10 µM.
With `CCn1nc(-c2ccc(-c3cnc(C4CC4)n3C)cc2)nc1Nc1ccc2c(c1)CNC2=O` [Example 25], the concentration for half-maximal inhibition (IC50) in experiment [1] is less than 0.3 µM; in experiment [2], 3 to 10 µM.
Consider `CCn1nc(-c2ccc(-c3ccnc(C)c3)c(C)c2)nc1Nc1ccc2c(c1)CNC2=O` [Example 26], for which the IC50 is less than 0.3 µM in experiment [1] and 3 to 10 µM in experiment [2].
For `CCn1nc(-c2ccc(-c3ccc(C)cn3)cc2)nc1Nc1ccc2c(c1)CNC2=O` [Example 27], the figures for the IC50 in experiment [1] and in experiment [2] were less than 0.3 µM and 3 to 10 µM, respectively.
The corresponding values for `CCn1nc(-c2ccc(-c3ccccn3)cc2)nc1Nc1ccc2c(c1)CNC2=O` [Example 28] are less than 0.3 µM and 3 to 10 µM.
The matching figures for `CCn1nc(-c2ccc(-c3cccnc3)cc2)nc1Nc1ccc2c(c1)CNC2=O` [Example 29]: less than 0.3 µM and 3 to 10 µM.
The matching figures for `CCn1nc(-c2ccc(-c3ccncc3)cc2)nc1Nc1ccc2c(c1)CNC2=O` [Example 30]: less than 0.3 µM and 3 to 10 µM.
For the compound `CCn1nc(-c2ccc(-c3ccc(C)nc3)c(C)c2)nc1Nc1ccc2c(c1)CNC2=O` [Example 31], the IC50 in experiment [1] is less than 0.3 µM; in experiment [2], 3 to 10 µM.
The corresponding values for `CCn1nc(-c2ccc(-c3ccnc(C4CC4)c3)c(C)c2)nc1Nc1ccc2c(c1)CNC2=O` [Example 32] are less than 0.3 µM and less than 0.3 µM.
The matching figures for `CCn1nc(-c2ccc(-c3ccnc(C4CC4)c3)c(F)c2)nc1Nc1ccc2c(c1)CNC2=O` [Example 33]: less than 0.3 µM and 3 to 10 µM.
The matching figures for `CCn1nc(-c2ccc(-c3ccnc(C)c3)c(F)c2)nc1Nc1ccc2c(c1)CNC2=O` [Example 34]: less than 0.3 µM and 3 to 10 µM.
On to `CCn1nc(-c2ccc(-c3ccc(C)nc3)cc2)nc1Nc1ccc2c(c1)CN(C)C2=O` [Example 35], for which the IC50 in experiment [1] was 3 to 10 µM; in experiment [2] it was greater than 10 µM.
The corresponding values for `CCn1nc(-c2ccc(-c3ccc(C)nc3)c(OC)c2)nc1Nc1ccc2c(c1)CNC2=O` [Example 36] are less than 0.3 µM and less than 0.3 µM.
The matching figures for `CCn1nc(-c2ccc(-c3ccc(C4CC4)nc3)c(F)c2)nc1Nc1ccc2c(c1)CNC2=O` [Example 37]: less than 0.3 µM and greater than 10 µM.
The corresponding values for `CCn1nc(-c2ccc(-c3ccc(C)nc3)nc2)nc1Nc1ccc2c(c1)CNC2=O` [Example 39] are less than 0.3 µM and greater than 10 µM.
As for `CCn1nc(-c2ccc(-c3ccc(C4CC4)nc3)c(C)c2)nc1Nc1ccc2c(c1)CNC2=O` [Example 40], the IC50 in experiment [1] was less than 0.3 µM; in experiment [2], greater than 10 µM.
The corresponding values for `CCn1nc(-c2ccc(-c3ccc(C)nc3)cc2)nc1Nc1cc2c(cc1C)C(=O)NC2C` (stereo not drawn) [Example 41] are less than 0.3 µM and 3 to 10 µM.

Values taken from US20250122173A1, “MODULATORS OF RHO-ASSOCIATED PROTEIN KINASE” (Redx Pharma Limited, priority 2022, published 2025).
